Data as given in patent US5091547A, “Phenylacetic acid derivative and process for making same” (priority 1989, dated 1992).
Where a name gives a salt, the structure may show the parent alone.

Tests used:
[1] = tested on: ulcers induced by absolute ethanol; test: Protective activity, ulcers induced by absolute ethanol; assay type: in vivo, rats
From the text: As explained previously, the compound of formula (I), which shall henceforth be referred to herein as LV-216, combines the advantage of anti-inflammatory and protective action.

[2] = acid as such; cited from earlier work
[3] = tested on: ulcerous lesions in the stomach and intestine; test: Comparative ulcerogenic action, macroscopic lesion indices (Adami's criterion); assay type: in vivo, Female Wistar rats
Description: Group I: control (excipient) (n=8)
Group II: sodium salt 10 mg/kg (n=8)
Group IV: sodium salt 10 mg/kg+zinc sulphate 2.5 mg/kg (n=8) (equivalent doses).
The products were administered orally every day for four consecutive days. The animals were given no food during the 24 hours prior to the last dose.

O=C(O)Cc1ccccc1Nc1c(Cl)cccc1Cl [2-(2,6-dichloroaniline)-phenylacetic acid]
inhibition of ulcers induced by absolute ethanol (in words) ([1]; equimolecular dose): does not inhibit the ulcers induced by absolute ethanol | Water solubility (in words, background) [2]: practically insoluble in water

O=C(O)Cc1ccccc1Nc1c(Cl)cccc1Cl [sodium salt, sodium salt of 2-(2,6-dichloroaniline)-phenylacetic acid]
mm lesion (lesion index) ([1]; LV-216 11 mg/kg, sodium salt at equimolecular dose, control 86.3 ± 9.4): 70.8 ± 8.2 mm | % inhibition of ulcers ([1]; versus control, LV-216 11 mg/kg, sodium salt at equimolecular dose): 17.9% | Macroscopic lesion index (x ± e) ([3]; oral, daily for four consecutive days, SS 10 mg/kg, LV-216 11 mg/kg, SS 10 mg/kg + zinc sulphate 2.5 mg/kg, n=8, control 0.4 ± 0.2): 4.0 ± 0.4 | t vs CONTROL (lesion index) ([3]; versus control): *** (p < 0.001) | ulcerous index versus control (in words) ([3]; versus control): statistically significant versus the control groups

zinc compound of 2-(2,6-dichloroaniline)-phenylacetic acid [LV-216]
t test of mm lesion versus control ([1]; 11 mg/kg, versus control): a (p < 0.01 versus control) | inhibition of ulcers induced by ethanol (protective action) ([1]; rats, doses of between 5 and 15 mg/kg): ≤ 80% | gastric tolerance (in words) ([3]; compared with sodium salt alone or in combination with zinc): surprisingly high degree of gastric tolerance, greater than that shown by the sodium salt administered alone or in combination with Zinc
